The text below walks through data of patent US7842695B2, “Substituted pyrazole compounds” (Merck Patent GmbH, priority 2003, dated 2010).

In the assay the target is 5-HT2A receptors (UniProt P14842). Description: in-vitro affinity to 5-HT2A receptors, [3H]ketanserine displacement (Example A1). It counts as binding. From the text: The 5-HT2A receptors are exposed both to [^3H]ketanserine (a substance known for its affinity to the receptor) and also to the test compound. The decrease in the affinity of [^3H]ketanserine to the receptor is an indication of the affinity of the test substance to the 5-HT2A receptor.
`COc1cccc(-c2c(CN3CCC(O)C3)cnn2-c2ccc(-c3ccc(F)cc3)cc2)c1` (stereo not drawn) [Example 598, 1-[1-(4′-Fluorobiphenyl-4-yl)-5-(3-methoxyphenyl)-1H-pyrazol-4-ylmethyl]pyrrolidin-3-ol] came in with an IC50 of 24 nM.

Consider `CCCN1CCN(Cc2cnn(-c3ccc(-c4ccc(F)cc4)cc3)c2-c2ccoc2)CC1` [Example 657, 1-[1-(4′-Fluorobiphenyl-4-yl)-5-furan-3-yl-1H-pyrazol-4-ylmethyl]-4-propylpiperazine], for which the IC50 was 73 nM.

`O=C1CN(Cc2cnn(-c3ccc(-c4ccc5c(c4)OCO5)cc3)c2-c2ccco2)CCN1` [Example 693, 4-[1-(4-Benzo-1,3-dioxol-5-ylphenyl)-5-furan-2-yl-1H-pyrazol-4-ylmethyl]piperazin-2-one] registered an IC50 of 280 nM.

With `CC#Cc1ccc(-c2ccc(-n3ncc(CN4CCN(C)CC4)c3-c3ccccc3F)cc2)c(F)c1` [Example 667, 1-[5-(2-Fluorophenyl)-1-(2′-fluoro-4′-prop-1-ynylbiphenyl-4-yl)-1H-pyrazol-4-ylmethyl]-4-methylpiperazine], the IC50 was determined as 93 nM.

For `COc1ccc(-c2ccc(-n3ncc(CNCc4ccccn4)c3-c3ccco3)cc2)cc1` [Example 641, [5-Furan-2-yl-1-(4′-methoxybiphenyl-4-yl)-1H-pyrazol-4-ylmethyl]pyridin-2-ylmethylamine], the IC50 was 46 nM.

Compound `Fc1ccc(-c2ccc(-n3ncc(CN4CCN(CCN5CCCC5)CC4)c3-c3cccc(Cl)c3)cc2)cc1` [Example 703, 1-[5-(3-Chlorophenyl)-1-(4′-fluorobiphenyl-4-yl)-1H-pyrazol-4-ylmethyl]-4-(2-pyrrolidin-1-ylethyl)piperazine] gave an IC50 of 480 nM.

`Fc1ccccc1-c1c(CCN2CCOCC2)cnn1-c1ccc(-c2ccccc2)cc1` [Example 632, 4-{2-[1-Biphenyl-4-yl-5-(2-fluorophenyl)-1H-pyrazol-4-yl]ethyl}morpholine] displayed an IC50 of 40 nM.

Take `COc1ccc(-c2c(CN3CCN(C)CC3)cnn2-c2ccc(-c3ccc(F)cc3)cc2)cc1` [Example 671, 1-[1-(4′-Fluorobiphenyl-4-yl)-5-(4-methoxyphenyl)-1H-pyrazol-4-ylmethyl]-4-methylpiperazine]: the IC50 came to 100 nM.

Regarding `COc1ccc(-c2ccc(-n3ncc(CNCc4nccs4)c3-c3ccco3)cc2)cc1` [Example 688, [5-Furan-2-yl-1-(4′-methoxybiphenyl-4-yl)-1H-pyrazol-4-ylmethyl]thiazol-2-ylmethylamine], the IC50 is 220 nM.

In the case of `COCCCNCc1cnn(-c2ccc(-c3ccc(F)cc3)cc2)c1-c1ccco1` [Example 580, [1-(4′-Fluorobiphenyl-4-yl)-5-furan-2-yl-1H-pyrazol-4-ylmethyl]-(3-methoxypropyl)amine], the IC50 turned out to be 16 nM.

In the case of `CC(C)(C)OC(=O)N1CCN(Cc2cnn(-c3ccc(-c4ccc5c(c4)OCCO5)cc3)c2-c2ccco2)CC1` [Example 572, tert-Butyl 4-{1-[4-(2,3-dihydrobenzo-1,4-dioxin-6-yl)phenyl]-5-furan-2-yl-1H-pyrazol-4-ylmethyl}piperazine-1-carboxylate], the IC50 came out at 12 nM.

`CC(C)(C)OC(=O)NC1CCN(Cc2cnn(-c3ccc(-c4ccc5c(c4)OCO5)cc3)c2-c2ccco2)CC1` [Example 611, tert-Butyl {1-[1-(4-benzo-1,3-dioxol-5-ylphenyl)-5-furan-2-yl-1H-pyrazol-4-ylmethyl]piperidin-4-yl}carbamate] returned an IC50 of 31 nM.

For the compound `CN(CCc1ccccc1)Cc1cnn(-c2ccc(-c3ccc(F)cc3)cc2)c1-c1ccco1` [Example 579, [1-(4′-Fluorobiphenyl-4-yl)-5-furan-2-yl-1H-pyrazol-4-ylmethyl]methylphenethylamine], the IC50 was found to be 16 nM.

With `Fc1ccc(-c2ccc(-n3ncc(CNC4CN5CCC4CC5)c3-c3ccco3)cc2)cc1` (stereo not drawn) [Example 621], the IC50 was 34 nM.

Compound `CCN(CC)Cc1cnn(-c2ccc(-c3ccc(F)cc3)cc2)c1-c1cccc(Cl)c1` [Example 682, [5-(3-Chlorophenyl)-1-(4′-fluorobiphenyl-4-yl)-1H-pyrazol-4-ylmethyl]diethylamine] returned an IC50 of 190 nM.

Turning to `OC1CCCN(Cc2cnn(-c3ccc(-c4ccc(F)cc4)cc3)c2-c2ccco2)C1` (stereo not drawn) [Example 646, 1-[1-(4′-Fluorobiphenyl-4-yl)-5-furan-2-yl-1H-pyrazol-4-ylmethyl]piperidin-3-ol], the IC50 came to 50 nM.

`CC(C)CNCc1cnn(-c2ccc(-c3ccc(F)cc3)cc2)c1-c1ccco1` [Example 654, [1-(4′-Fluorobiphenyl-4-yl)-5-furan-2-yl-1H-pyrazol-4-ylmethyl]isobutylamine] had an IC50 of 61 nM.

For `CN1CCN(Cc2cnn(-c3ccc(-c4ccc(F)cc4)cc3)c2-c2c(F)cccc2F)CC1` [Example 573, 1-[5-(2,6-Difluorophenyl)-1-(4′-fluorobiphenyl-4-yl)-1H-pyrazol-4-ylmethyl]-4-methylpiperazine], the IC50 is 13 nM.

`COc1ccc(-c2ccc(-n3ncc(CN(Cc4nccn4C)Cc4nccn4C)c3-c3ccco3)cc2)cc1` [Example 700, [5-Furan-2-yl-1-(4′-methoxybiphenyl-4-yl)-1H-pyrazol-4-ylmethyl]bis-(1-methyl-1H-imidazol-2-ylmethyl)amine] registered an IC50 of 450 nM.

On to `CCN(CC)Cc1cnn(-c2ccc(-c3ccc(F)cc3)cc2)c1-c1cccc(OC)c1` [Example 676, Diethyl-[1-(4′-fluorobiphenyl-4-yl)-5-(3-methoxyphenyl)-1H-pyrazol-4-ylmethyl]amine], for which the IC50 was 130 nM.

In turn, `COc1cccc(-c2c(CN3CCC(O)C3)cnn2-c2ccc(-c3ccc(F)cc3)cc2)c1` (stereo not drawn) [Example 665, 1-[1-(4′-Fluorobiphenyl-4-yl)-5-(3-methoxyphenyl)-1H-pyrazol-4-ylmethyl]pyrrolidin-3-ol] showed an IC50 of 91 nM.

Compound `Cc1noc(C)c1-c1c(CN(C)C)cnn1-c1ccc(-c2ccc(F)cc2)cc1` [Example 577, [5-(3,5-Dimethylisoxazol-4-yl)-1-(4′-fluorobiphenyl-4-yl)-1H-pyrazol-4-ylmethyl]dimethylamine] returned an IC50 of 16 nM.

`Fc1ccc(-c2ccc(-n3ncc(CN4CCN(CCN5CCCCC5)CC4)c3-c3cccc(Cl)c3)cc2)cc1` [Example 702, 1-[5-(3-Chlorophenyl)-1-(4′-fluorobiphenyl-4-yl)-1H-pyrazol-4-ylmethyl]-4-(2-piperidin-1-ylethyl)piperazine] gave an IC50 of 470 nM.

As to `Fc1ccc(-c2ccc(-n3ncc(CNC4CC4)c3-c3ccco3)cc2)cc1` [Example 582], the IC50 was 17 nM.

In the case of `CC(C)(C)OC(=O)NC1CCN(Cc2cnn(-c3ccc(-c4cccc(F)c4)cc3)c2-c2ccco2)CC1` [Example 608, tert-Butyl {1-[1-(3′-fluorobiphenyl-4-yl)-5-furan-2-yl-1H-pyrazol-4-ylmethyl]piperidin-4-yl}carbamate], the IC50 turned out to be 29 nM.

The compound `CN1CCN(Cc2cnn(-c3ccc(-c4ccc5c(c4)OCCO5)cc3)c2-n2cccc2)CC1` [Example 651, 1-{1-[4-(2,3-Dihydrobenzo-1,4-dioxin-6-yl)phenyl]-5-pyrrol-1-yl-1H-pyrazol-4-ylmethyl}-4-methylpiperazine] yielded an IC50 of 55 nM.

`O=C(O)Cc1cnn(-c2ccccc2F)c1-c1cccs1` [Example 678, 1-(2-Fluorophenyl)-5-(2-thienyl)-4-pyrazoleacetic acid] returned an IC50 of 160 nM.

As to `CCN(CC)Cc1cnn(-c2ccc(-c3ccc(F)cc3)cn2)c1-c1ccco1` [Example 675, Diethyl-{1-[5-(4-fluorophenyl)pyridin-2-yl]-5-furan-2-yl-1H-pyrazol-4-ylmethyl}amine], the half-inhibitory concentration (IC50) is 130 nM.

`Fc1ccc(-c2ccc(-n3ncc(CNC4CCCC4)c3-c3ccco3)cc2)cc1` [Example 568, Cyclopentyl-[1-(4′-fluorobiphenyl-4-yl)-5-furan-2-yl-1H-pyrazol-4-ylmethyl]amine]: the IC50 amounted to 11 nM.

Compound `CC1CCCN1Cc1cnn(-c2ccc(-c3ccc4c(c3)OCO4)cc2)c1-c1ccco1` (stereo not drawn) [Example 616, 1-(4-Benzo-1,3-dioxol-5-ylphenyl)-5-furan-2-yl-4-(2-methylpyrrolidin-1-ylmethyl)-1H-pyrazole] returned an IC50 of 32 nM.

The compound `COCCN1CCN(Cc2cnn(-c3ccc(-c4ccc(F)cc4)cc3)c2-c2cccc(OC)c2)CC1` [Example 685, 1-[1-(4′-Fluorobiphenyl-4-yl)-5-(3-methoxyphenyl)-1H-pyrazol-4-ylmethyl]-4-(2-methoxyethyl)piperazine] came in with an IC50 of 190 nM.

Compound `CCC(CO)NCc1cnn(-c2ccc(-c3ccc(F)cc3)cc2)c1-c1ccco1` (stereo not drawn) [Example 642, 2-{[1-(4′-Fluorobiphenyl-4-yl)-5-furan-2-yl-1H-pyrazol-4-ylmethyl]amino}butan-1-ol] displayed an IC50 of 47 nM.

The compound `CC(C)(C)OC(=O)NC1CCN(Cc2cnn(-c3ccc(-c4ccc5c(c4)OCCO5)cc3)c2-c2ccco2)CC1` [Example 566, tert-Butyl (1-{1-[4-(2,3-dihydrobenzo-1,4-dioxin-6-yl)phenyl]-5-furan-2-yl-1H-pyrazol-4-ylmethyl}piperidin-4-yl)carbamate] returned an IC50 of 11 nM.

Compound `CN1CCN(Cc2cnn(-c3ccc(-c4ccc(S(C)(=O)=O)cc4)cc3)c2-c2ccccc2F)CC1` [Example 663, 1-[5-(2-Fluorophenyl)-1-(4′-methanesulfonylbiphenyl-4-yl)-1H-pyrazol-4-ylmethyl]-4-methylpiperazine] had an IC50 of 85 nM.

Compound `COc1cc2c(cc1OC)CN(Cc1cnn(-c3ccc(-c4ccc(F)cc4)cc3)c1-c1ccco1)CC2` [Example 697, 2-[1-(4′-Fluorobiphenyl-4-yl)-5-furan-2-yl-1H-pyrazol-4-ylmethyl]-6,7-dimethoxy-1,2,3,4-tetrahydroisoquinoline] returned an IC50 of 350 nM.

Turning to `COc1ccc(-c2ccc(-n3ncc(CN)c3-c3ccco3)cc2)cc1` [Example 584, C-[5-Furan-2-yl-1-(4′-methoxybiphenyl-4-yl)-1H-pyrazol-4-yl]methylamine], the IC50 came to 18 nM.

One may read the IC50 as the concentration that gives 50% inhibition.
